Reference: ChEMBL document CHEMBL6115048, “Uncovering α-Selectivity for Liver X Receptor Agonists for Lipotoxic Cancer Therapies” (J Med Chem, 2025)

Key:
[1] = biological target: T1, Oxysterols receptor LXR-alpha (Homo sapiens, UniProt Q13133); experiment: Agonist activity at GST-tagged LXRalpha LBD (unknown origin) measured after 6 hrs in presence of fluorescein-TRAP220/DRIP-2 by TR-FRET assay
T1 sequence (Q13133 whole entry): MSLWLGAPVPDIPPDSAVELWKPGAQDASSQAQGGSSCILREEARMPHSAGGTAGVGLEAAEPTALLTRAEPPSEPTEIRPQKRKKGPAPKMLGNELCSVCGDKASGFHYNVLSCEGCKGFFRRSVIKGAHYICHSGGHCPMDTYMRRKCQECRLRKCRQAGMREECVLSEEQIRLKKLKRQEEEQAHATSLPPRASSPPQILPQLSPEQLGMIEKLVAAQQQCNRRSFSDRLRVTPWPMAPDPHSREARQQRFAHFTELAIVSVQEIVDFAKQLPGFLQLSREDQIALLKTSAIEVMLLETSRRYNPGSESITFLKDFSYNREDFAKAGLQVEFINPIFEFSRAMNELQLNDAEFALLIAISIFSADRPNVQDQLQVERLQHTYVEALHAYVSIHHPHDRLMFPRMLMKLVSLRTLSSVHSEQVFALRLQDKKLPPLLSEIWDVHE

[2] = biological target: T2, Oxysterols receptor LXR-beta (Homo sapiens, UniProt P55055); experiment: Agonist activity at GST-tagged LXRbeta LBD (unknown origin) measured after 6 hrs in presence of fluorescein-TRAP220/DRIP-2 by TR-FRET assay
T2 sequence (P55055 whole entry): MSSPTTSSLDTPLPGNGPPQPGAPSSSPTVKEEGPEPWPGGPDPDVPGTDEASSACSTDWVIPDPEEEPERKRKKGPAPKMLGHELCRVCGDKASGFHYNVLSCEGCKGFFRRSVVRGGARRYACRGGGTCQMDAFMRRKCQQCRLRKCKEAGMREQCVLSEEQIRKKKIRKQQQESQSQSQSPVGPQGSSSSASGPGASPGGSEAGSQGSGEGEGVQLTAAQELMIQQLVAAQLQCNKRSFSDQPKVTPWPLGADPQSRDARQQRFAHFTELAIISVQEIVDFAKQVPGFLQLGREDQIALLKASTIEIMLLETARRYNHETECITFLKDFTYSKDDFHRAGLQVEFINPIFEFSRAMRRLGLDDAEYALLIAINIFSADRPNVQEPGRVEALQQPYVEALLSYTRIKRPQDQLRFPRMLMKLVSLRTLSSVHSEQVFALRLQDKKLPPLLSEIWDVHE

[3] = system: Hepatocellular carcinoma organoid; experiment: Antiproliferative activity against C57BL/6 mouse Hepatocellular carcinoma organoids harboring myristoylated Akt1 and overexpressing Myc assessed as reduction in cell viability measured after 5 days in presence of sorafenib by Celltiter-glo assay; type: functional, tissue-based; conditions: Neoplasm, dose 1-5 µM, time 5.0 day
Hep 3B2 = experiment: Antiproliferative activity against human Hep3B cells assessed as reduction in cell viability measured after 5 days in presence of sorafenib by Celltiter-glo assay; type: functional, cell-based; conditions: for EC50: 120 h

EC50 [1] | EC50 [2] | Structure (SMILES) | Activity [3] | EC50 (Hep 3B2) [µM] | Activity (Hep 3B2; time 5.0 day)
Not_active | Not_active | CC(C)(C)OC(=O)NC1CCN(c2ccc(NC3=C(c4ccccc4)C(=O)N(Cc4ccccc4)C3=O)cc2)CC1 |  |  | 
 |  | O=S(=O)(c1ccccc1)N(CC(F)(F)F)c1ccc(C(O)(C(F)(F)F)C(F)(F)F)cc1 | Dose-dependent-effect |  | 
 |  | COc1ccc(NC2=C(c3ccccc3)C(=O)N(Cc3ccccc3)C2=O)cc1 |  | 3.8 | 
Not_active | Not_active | CN1CCN(c2ccc(NC3=C(c4ccccc4)C(=O)N(Cc4ccccc4)C3=O)cc2)CC1 |  |  | 
 |  | O=C(O)Cc1cccc(OCCCN(Cc2cccc(C(F)(F)F)c2Cl)CC(c2ccccc2)c2ccccc2)c1 | Dose-dependent-effect | 1.9 | Dose-dependent-effect
